In patent US6329523A, “Compounds having a plurality of nitrogenous substitutents” (ISIS Pharmaceuticals, Inc., priority 1999, dated 2001):
Values after ≈ are worked out from the molar mass of the structure shown.

Tests used:
Format in all cases: cell-based
E. coli imp- = experiment: MIC / bacterial growth assay, E. coli imp-; details: Escherichia coli
Description: The strain E. coli imp- obtained from Spencer Benson (Sampson, B. A., Misra, R. & Benson, S. A., Genetics, 1989, 122, 491-501, Identification and characterization of a new gene of Escherichia coli K-12 involved in outer membrane permeability) is used in this bacterial growth assay. To initiate the exponential phase of bacterial growth prior to the assay, a sample of bacteria is grown for 6 hours in Mueller Hinton II Broth (BBL 12322) at 37° C. then re-inoculated into fresh media and grown overnight at 37° C. The bacterial cells are collected by centrifugation for 10 minutes at 3200 rpm, diluted and absorbance read at 595 nm. Bacteria diluted in 2×Mueller Hinton II Broth (75 μL) are added to the compound mixtures (75μL) for a total volume of 150 μL. The assays are performed in 96-well microplates with approximately 1×10^4 colony forming units (CFU) per well. The plates are incubated at 37° C. and growth monitored over a 24 hour period by measuring the optical density at 595 nm using a BioRad model 3550 UV microplate reader. The percentage of growth relative to a well containing no compound is determined. Ampicillin and tetracycline antibiotic controls are concurrently tested in each screening assay.
(§1) Compounds are assayed in duplicate at a single dose. Compounds which show inhibitory activity are re-tested in duplicate at multiple doses to determine minimum inhibitory concentration (MIC).

C. albicans = experiment: antifungal MIC assay, C. albicans; details: Candida albicans, 24 h; MIC ASSAYS table; unit inferred
Description: Yeast diluted in 2×YM Broth (75 μL) are added to the compound mixtures (75 μL) for a total volume of 150 μL. The assays are performed in 96-well microplates with approximately 1×10^4 cells per well. The plates are incubated at 25° C. and growth monitored at 48 hours by visual inspection of yeast growth. Amphotericin B anti-fungal control is concurrently tested in each screening assay.
Compounds are assayed in duplicate at multiple doses to determine minimum inhibitory concentration (MIC).

Streptococcus pyogenes = experiment: MIC / bacterial growth assay, Streptococcus pyogenes; details: for inhibition at 100 µM: read-out: inhibition in the S. pyogenes procedure
Description: S. pyogenes [American Type Culture Collection (ATCC) #14289] is used in this bacterial growth assay. To initiate the exponential phase of bacterial growth prior to the assay, a sample of bacteria is grown for 6 hours in Todd Hewitt Broth (Difco 0492-17-6) at 37° C. then re-inoculated into fresh media and grown overnight at 37° C. The bacterial cells are collected by centrifugation for 10 minutes at 3200 rpm, diluted and absorbance read at 595 nm. Bacteria diluted in 233 Todd-Hewitt Broth ([…]) are added to the compound mixtures (75 μL) for a total volume of 150 μL. The assays are performed in 96-well microplates with approximately 1×10^4 colony forming units (CFU) per well. The plates are incubated at 37° C. and growth monitored over a 24 hour period by measuring the optical density at 595 nm using a BioRad model 3550 UV microplate reader. The percentage of growth relative to a well containing no compound is determined. Ampicillin and tetracycline antibiotic controls are concurrently tested in each screening assay.
as §1

Structure (SMILES) | MIC (E. coli imp-; 24 h, read-out: MIC E. coli) [µM] | MIC (C. albicans) [µM] | MIC (Streptococcus pyogenes; 24 h, MIC ASSAYS table, first round or parent libraries, unit inferred, read-out: MIC S. pyrogenes) [µM] | inhibition at 100 µM (E. coli imp-; read-out: inhibition in the E. coli procedure) [%] | inhibition at 100 µM (Streptococcus pyogenes) [%]
OCCCN(CCN(Cc1ccccc1)Cc1cccc(CN(Cc2ccccc2)Cc2ccccc2)n1)Cc1ccccc1 [Compound 9, 2-(N,N-dibenzylaminomethylene)-6-{[N1-[benzyl(methyl-1-yl)]-N2-(benzyl)-1-propanol-3-yl]-1,2-diaminoethane}pyridine] | 5 to 25 (≈ 2.99 to 15 µg/mL) | 1 to 5 (≈ 0.599 to 2.99 µg/mL) | 5 to 25 (≈ 2.99 to 15 µg/mL) |  | 
NC(=O)CN(Cc1cccc(C(F)(F)F)c1)Cc1cccc(CN(CCNCCCO)Cc2cccc(C(F)(F)F)c2)n1 [Example 137] |  |  |  | 87 | 95
N=C(N)NCc1cccc(CN(CCNCCCO)Cc2cccc(C(F)(F)F)c2)n1 [Example 142] |  |  |  |  | 95
